Assay results as given in patent US20140050669A1, “USE OF RADIOGRAPHIC CONTRAST AGENTS FOR DETECTING DENTAL CARIES” (Creighton University, priority 2011, published 2014).

What was measured:
[1] = x-ray contrast imaging of identified dental caries before and after topical intra-oral composition; conditions: 9 M sodium iodide in distilled water
Method: A radiographic contrast imaging analysis using x-ray imaging was performed, comparing the imaging of identified dental caries before and after administration of a topical intra-oral composition comprising sodium iodide and distilled water according to the methods of the current invention. Specifically, an x-ray image of a tooth with identified dental caries was performed, without administering the topical intra-oral composition. This image was used as a control for determining the ability of typical x-ray images to detect dental caries in a patient. Subsequently, the same tooth was administered a composition comprising sodium iodide and distilled water, with the composition having a sodium iodide concentration of 9 molar. After administration of the composition to the tooth, x-ray images were obtained 20 seconds after administration and 16 minutes after administration. Further, an x-ray image of the tooth was taken 14 days after administration of the composition to determine if the composition continued to reside in the dental carious lesion. The images obtained are found in FIG. 1.

[2] = x-ray imaging of cavitated surface versus sound healthy surface; conditions: 9 M sodium iodide solution, x-ray 2 minutes after administration
Method: An experiment was performed to test the ability of the topical intra-oral compositions and methods to differentiate between cavitated surfaces (dental caries) and healthy, sound surfaces. Specifically, an x-ray image of a tooth with an identified cavitated surface on one side of the tooth and a sound surface on the other side was performed, without administering the topical intra-oral composition. This image was used as a control for determining the ability of the topical intra-oral compositions to selectively absorb into cavitated surfaces, rather than sound surfaces. Subsequently, the same tooth was administered a composition comprising sodium iodide and distilled water, with the composition having a sodium iodide concentration of 9 molar. After administration of the composition to the tooth, an x-ray image was obtained 2 minutes after administration. The results are illustrated in FIG. 2.

[3] = x-ray imaging of cavitated lesion versus non-cavitated lesion; conditions: 9 M sodium iodide solution, x-ray 3 minutes after administration
Method: An experiment was performed to test the ability of the topical intra-oral compositions and methods to differentiate between cavitated surfaces (a cavity) requiring treatment and non-cavitated lesions not requiring treatment. Specifically, an x-ray image of a tooth with an identified cavitated surface on the right side of the tooth and a non-cavitated lesion on the other side was performed, without administering the topical intra-oral composition. This image was used as a control for determining the ability of the topical intra-oral compositions to selectively absorb into cavitated lesions, rather than non-cavitated lesions. Subsequently, the same tooth was administered a composition comprising sodium iodide and distilled water, with the composition having a sodium iodide concentration of 9 molar. After administration of the composition to the tooth, an x-ray image was obtained 3 minutes after administration. The results are illustrated in FIG. 3.

[4] = comparison of contrast agents applied in turn to the same tooth cavity, radiographic analysis
Method: A 9M solution of sodium iodide (an ionic contrast agent) and a 76% solution of iopamidol (a non-ionic contrast agent) were administered. Each compound was applied in turn under identical conditions to the same tooth cavity and the tooth was radiographically analyzed as discussed above. After application and testing of each compound, the contrast was washed out from the tooth, and the tooth was tested radiographically to ensure there was no contrast remaining.
A barium sulfate solution comprising 1 gram of barium sulfate in 0.5 ml distilled water was administered. The compound was applied, and the tooth was analyzed and compared to other contrast agents and to the control treated tooth as discussed in Example 4. After application and testing of each compound, the contrast was washed out from the tooth and the tooth was tested radiographically to ensure there was no contrast remaining.

[5] = barium sulfate 96% w/w, radiograph 15 seconds after application
Text: The radiograph was taken 15 seconds after barium sulfate (96% w/w) was applied.

[I-].[Na+] [sodium iodide]
radiographic image of dental caries versus control image ([1]; x-ray 20 seconds after administration): enhanced radiographic image of dental caries
radiographic image of dental caries versus control image ([1]; x-ray 16 minutes after administration): enhanced radiographic image of dental caries
x-ray appearance of composition in the carious lesion ([1]; x-ray 14 days after administration): altered x-ray appearance
radiographic image of dental caries (cavitated surface) ([2]; cavitated surface): enhanced radiographic image of dental caries
effect on imaging of sound tooth surfaces ([2]; sound surface): does not affect the imaging of sound tooth surfaces
radiographic image of cavitated lesion (cavity) ([3]; cavitated lesion): enhanced radiographic image of a cavitated lesion
effect on imaging of non-cavitated lesions ([3]; non-cavitated lesion): does not affect the imaging of non-cavitated lesions
radiographic contrast enhancement of tooth cavity ([4]; 9M solution of sodium iodide): produced radiographic contrast enhancement revealing tooth cavitation

O=S(=O)([O-])[O-].[Ba+2] [barium sulfate]
radiographic contrast enhancement of tooth cavity ([4]; 1 gram of barium sulfate in 0.5 ml distilled water): produced radiographic contrast enhancement revealing tooth cavitation
radiographic image of shallow cavity [5]: image showing a shallow cavity

C[C@H](O)C(=O)Nc1c(I)c(C(=O)NC(CO)CO)c(I)c(C(=O)NC(CO)CO)c1I [iopamidol]
radiographic contrast enhancement of tooth cavity ([4]; 76% solution of iopamidol): produced radiographic contrast enhancement revealing tooth cavitation
